From patent US8697730B2, “5-lipoxygenase activating protein (FLAP) inhibitor” (Panmira Pharmaceuticals, LLC, priority 2007, dated 2014)

How the values were obtained:
[1] = tested on: whole blood ionophore-stimulated leukotriene LTB4; test: Phase 1 study, whole blood ionophore-stimulated LTB4; type: in vivo, human
Method: (§1) Pharmacodynamics: Whole blood ionophore-stimulated leukotriene LTB4 and urinary LTE4 production are assayed by ELISA and mass spectrometry, respectively.
(§2) Obtain pre-dose fasting blood samples for hematology determinations. Obtain pre-dose fasting blood samples for serum chemistry determinations. Obtain pre-dose blood samples (5 mL EDTA and 4 mL heparinized) for baseline PK and LTB4. Collect ‘spot’ urine prior to study drug administration for baseline (pre-dose) LTE4. Administer study drug. […] Collect blood samples (2 mL heparinized) for LTB4 at 0.5, 1, 2, 3, 4, 6, 8, and 12 hours. Collect urine for LTE4 for the following separate intervals: 0-3, 3-6, 6-9, and 9-12 hours. For twice daily dosing group (if conducted): administer study drug 12 hours±30 minutes after prior dose, preceded by ≧2 hours fast.
(§3) Obtain pre-dose fasting blood samples for hematology determinations. Obtain pre-dose fasting blood samples for serum chemistry determinations. […] Collect blood samples (2 mL heparinized) for LTB4 at 24 hours after the first study drug administration; 4 mL blood will be collected at this time point in the Single Dose Phase. Collect ‘spot’ urine sample for LTE4 at 24 and 36 hours after first study drug administration.
(§4) Obtain pre-dose blood samples (5 mL EDTA and 2 mL heparinized) for PK and LTB4. Collect pre-dose urine for LTE4. Administer study drug (last dose of drug). […] Collect blood samples (2 mL heparinized) for LTB4 at 0.5, 1, 2, 3, 4, 6, 8, and 12 hours. Collect urine for LTE4 for the following separate intervals: 0-3, 3-6, 6-9, and 9-12 hours after study drug administration.
(§5) Record vital signs 24 hours after Day 11 study drug administration. […] Collect blood sample (4 mL heparinized) for LTB4 at 24 hours after Day 11 study drug administration. Collect ‘spot’ urine sample for LTE4 at 24 hours after Day 11 study drug administration.
(§6) Whole blood ionophore-stimulated leukotriene LTB4 and urinary LTE4 production were assayed by ELISA and mass spectrometry, respectively.

[2] = tested on: urinary LTE4 production; test: Phase 1 study, urinary LTE4; type: in vivo, human
Method: as §1, §2, §3, §4, §5, §6

[3] = tested on: CYP2C9; conditions: tested at 10 μM; diclofenac substrate
[4] = tested on: allergen-induced early and late phases of lung-volume decline; conditions: clinical trials / allergen-challenge studies; cited from earlier work
[5] = Gravimetric Vapor Sorption (GVS); conditions: 25° C.; for hygroscopicity in words: GVS; for total weight change: between 0% RH and 90% RH
[6] = Aqueous solubility determination (thermodynamic solubility); conditions: for Appearance of mixture after equilibration for 24 hours: suspended in 0.25 mL of water, 25° C.; for pH of saturated solution / Concentration of filtrate (as mg/ml of free base): water, equilibrated at 25° C. for 24 hours; for Concentration of filtrate (as mg/ml of free base): HPLC
[7] = pH solubility profile; type: physicochemical; conditions: about 25° C.
[8] = Storage stability of polymorphs; type: physicochemical; conditions: for change after 1 week storage (crystallinity / x-ray powder diffraction pattern, colour): 1 week at 40° C. and 75% RH
[9] = tested on: chronic asthma; conditions: chronic asthma studies; cited from earlier work
[10] = Examination of liver weight change in mice; conditions: oral 250 mg/kg daily for 4 days, compared with vehicle control
Method: Twenty-four hours following the final administration mice were placed into an enclosed Plexiglas chamber and exposed to CO2 for a period of 1-2 minutes or until breathing ceased. They were then removed and blood was taken via a cardiac puncture and cervical dislocation was performed. Subjects were next placed in a supine position and a midline incision made. All organs were inspected and the livers removed by careful dissection. Liver weights were recorded as well as any gross abnormalities.

[11] = biological target: CYP3A4 (Homo sapiens, UniProt P08684); conditions: microsomes
Chain of CYP3A4 (P08684 whole entry): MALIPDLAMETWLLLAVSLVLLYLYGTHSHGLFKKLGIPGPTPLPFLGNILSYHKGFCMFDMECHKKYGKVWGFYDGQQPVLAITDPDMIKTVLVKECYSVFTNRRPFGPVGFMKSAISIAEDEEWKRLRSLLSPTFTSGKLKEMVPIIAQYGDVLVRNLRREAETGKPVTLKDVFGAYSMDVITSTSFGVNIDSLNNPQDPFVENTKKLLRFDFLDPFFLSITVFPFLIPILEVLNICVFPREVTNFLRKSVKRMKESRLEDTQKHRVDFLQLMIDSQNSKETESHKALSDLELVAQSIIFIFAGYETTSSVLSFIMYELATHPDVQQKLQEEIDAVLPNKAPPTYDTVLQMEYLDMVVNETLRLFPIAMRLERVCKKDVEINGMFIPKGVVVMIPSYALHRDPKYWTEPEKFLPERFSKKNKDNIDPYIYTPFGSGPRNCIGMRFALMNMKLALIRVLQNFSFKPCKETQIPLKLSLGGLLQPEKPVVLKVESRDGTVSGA

[12] = biological target: CYP2C9 (Homo sapiens, UniProt P11712); conditions: microsomes
Chain of CYP2C9 (Homo sapiens, UniProt P11712) (P11712 whole entry): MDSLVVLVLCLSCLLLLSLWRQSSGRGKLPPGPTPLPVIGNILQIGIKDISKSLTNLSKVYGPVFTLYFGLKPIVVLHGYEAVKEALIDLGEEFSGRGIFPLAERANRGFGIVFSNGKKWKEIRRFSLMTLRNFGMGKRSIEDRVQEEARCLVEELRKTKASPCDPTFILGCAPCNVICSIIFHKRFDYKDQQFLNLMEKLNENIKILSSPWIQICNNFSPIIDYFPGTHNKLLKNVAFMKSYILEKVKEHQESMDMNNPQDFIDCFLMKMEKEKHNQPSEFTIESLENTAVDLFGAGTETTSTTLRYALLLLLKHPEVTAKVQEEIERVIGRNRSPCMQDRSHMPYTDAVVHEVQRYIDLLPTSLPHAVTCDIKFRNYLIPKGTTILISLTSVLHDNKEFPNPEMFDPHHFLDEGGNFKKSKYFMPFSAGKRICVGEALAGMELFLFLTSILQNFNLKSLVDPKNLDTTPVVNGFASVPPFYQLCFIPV

[13] = biological target: CYP2C19 (Homo sapiens, UniProt P33261); conditions: microsomes
Chain of CYP2C19 (P33261 whole entry): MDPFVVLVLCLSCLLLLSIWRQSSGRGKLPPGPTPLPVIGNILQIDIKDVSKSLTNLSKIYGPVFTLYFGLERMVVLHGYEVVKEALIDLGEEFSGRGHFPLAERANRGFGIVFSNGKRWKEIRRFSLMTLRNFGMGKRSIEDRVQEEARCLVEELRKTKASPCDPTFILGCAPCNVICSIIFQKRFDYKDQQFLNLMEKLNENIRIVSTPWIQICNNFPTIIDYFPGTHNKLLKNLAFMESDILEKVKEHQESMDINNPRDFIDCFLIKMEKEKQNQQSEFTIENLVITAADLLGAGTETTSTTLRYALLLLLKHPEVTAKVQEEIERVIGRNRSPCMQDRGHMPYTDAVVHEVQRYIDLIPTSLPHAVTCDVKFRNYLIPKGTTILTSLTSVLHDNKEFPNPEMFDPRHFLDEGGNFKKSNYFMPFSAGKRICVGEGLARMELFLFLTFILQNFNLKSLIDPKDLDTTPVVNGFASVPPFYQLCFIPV

[14] = biological target: CYP2D6 (Homo sapiens, UniProt P10635); conditions: microsomes
Chain of CYP2D6 (P10635 whole entry): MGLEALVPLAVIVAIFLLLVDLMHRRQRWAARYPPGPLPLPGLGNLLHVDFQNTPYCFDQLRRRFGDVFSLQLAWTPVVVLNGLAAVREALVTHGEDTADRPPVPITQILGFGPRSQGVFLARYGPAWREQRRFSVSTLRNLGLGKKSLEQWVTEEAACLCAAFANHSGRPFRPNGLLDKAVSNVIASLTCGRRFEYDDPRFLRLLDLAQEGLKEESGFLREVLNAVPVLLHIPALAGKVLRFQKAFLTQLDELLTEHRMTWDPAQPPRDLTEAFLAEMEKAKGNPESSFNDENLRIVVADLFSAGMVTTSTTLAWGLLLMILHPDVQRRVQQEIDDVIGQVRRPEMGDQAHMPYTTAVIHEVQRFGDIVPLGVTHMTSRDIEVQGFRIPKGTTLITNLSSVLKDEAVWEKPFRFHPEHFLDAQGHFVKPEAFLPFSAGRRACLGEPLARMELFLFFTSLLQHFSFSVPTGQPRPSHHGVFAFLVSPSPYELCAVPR

[15] = biological target: T1, CYP1A2 (Homo sapiens, UniProt P05177)
T1 sequence (P05177 1-516): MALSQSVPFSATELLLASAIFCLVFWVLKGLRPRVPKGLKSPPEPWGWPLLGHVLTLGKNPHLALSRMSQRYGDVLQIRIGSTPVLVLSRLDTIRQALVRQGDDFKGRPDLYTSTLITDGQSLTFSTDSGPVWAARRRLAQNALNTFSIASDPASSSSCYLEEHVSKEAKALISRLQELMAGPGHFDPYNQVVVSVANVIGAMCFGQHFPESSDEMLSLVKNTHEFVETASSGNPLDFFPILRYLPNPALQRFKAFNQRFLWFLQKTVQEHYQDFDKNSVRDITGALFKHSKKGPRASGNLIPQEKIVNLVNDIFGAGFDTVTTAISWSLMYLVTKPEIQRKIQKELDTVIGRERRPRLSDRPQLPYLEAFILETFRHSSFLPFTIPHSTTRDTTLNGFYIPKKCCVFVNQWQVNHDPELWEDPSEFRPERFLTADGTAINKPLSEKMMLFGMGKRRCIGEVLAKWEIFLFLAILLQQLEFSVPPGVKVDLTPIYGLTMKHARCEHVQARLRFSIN

[16] = Cycle 1, Scan 1, Adsorption, % RH load to 40
[17] = Cycle 1, Scan 2, Adsorption, % RH 0 to 40
[18] = Cycle 1, Scan 2, Adsorption, % RH 40 to 90
[19] = Cycle 1, Scan 2, Desorption, % RH 90 to 0
[20] = Cycle 2, Scan 3, Adsorption, % RH 40 to 90
[21] = Cycle 2, Scan 4, Adsorption, % RH 0 to 40
[22] = Cycle 2, Scan 4, Desorption, % RH 90 to 0
[23] = profile that may be obtained from a single dose administration to a human, dose not stated

## COc1ccc(-c2ccc(Cn3c(CC(C)(C)C(=O)O)c(SC(C)(C)C)c4cc(OCc5ccccn5)ccc43)cc2)cn1
[1]; clinical trial summary
  effect on LTB4 levels in humans, in words: lowers
[2]; clinical trial summary
  effect on LTE4 levels in humans, in words: lowers

## COc1ccc(-c2ccc(Cn3c(CC(C)(C)C(=O)O)c(SC(C)(C)C)c4cc(OCc5ccccn5)ccc43)cc2)cn1 [3-[5-(pyridin-2-ylmethoxy)-3-(2-methyl-2-propylthio)-1-[4-(2]
[3]
  CYP2C9 induction in words: not an inducer

## O=C(O)[C@@H](c1ccc(OCc2ccc3ccccc3n2)cc1)C1CCCC1 [BAYX-1005, (R)-2-[4-(quinolin-2-yl-methoxy)phenyl]-2-cyclopentyl acetic acid]
[4]
  efficacy in words: shown efficacy

## COc1ccc(-c2ccc(Cn3c(CC(C)(C)C(=O)O)c(SC(C)(C)C)c4cc(OCc5ccccn5)ccc43)cc2)cn1 [Crystalline Free Acid]
[5]
  stability to changes in humidity (XRPD after GVS experiment): stable to changes in humidity
[5]; Cycle 1, Scan 1, Adsorption, % RH load to 40, listed as crystalline 3-[5-(pyridin-2-ylmethoxy)-3-(2-methyl-2-propylthio)-1-[4-(2-methoxy)
  % weight change: 0.00%
[5]; Cycle 1, Scan 2, Adsorption, % RH 0 to 40, listed as crystalline 3-[5-(pyridin-2-ylmethoxy)-3-(2-methyl-2-propylthio)-1-[4-(2-methoxy)
  % weight change: 0.07%
[5]; Cycle 1, Scan 2, Adsorption, % RH 40 to 90, listed as crystalline 3-[5-(pyridin-2-ylmethoxy)-3-(2-methyl-2-propylthio)-1-[4-(2-methoxy)
  % weight change: 0.34%
[5]; Cycle 1, Scan 2, Desorption, % RH 90 to 0, listed as crystalline 3-[5-(pyridin-2-ylmethoxy)-3-(2-methyl-2-propylthio)-1-[4-(2-methoxy)
  % weight change: −0.42%
[5]; Cycle 2, Scan 3, Adsorption, % RH 40 to 90, listed as crystalline 3-[5-(pyridin-2-ylmethoxy)-3-(2-methyl-2-propylthio)-1-[4-(2-methoxy)
  % weight change: 0.29%
[5]; Cycle 2, Scan 4, Adsorption, % RH 0 to 40, listed as crystalline 3-[5-(pyridin-2-ylmethoxy)-3-(2-methyl-2-propylthio)-1-[4-(2-methoxy)
  % weight change: 0.08%
[5]; Cycle 2, Scan 4, Desorption, % RH 90 to 0, listed as crystalline 3-[5-(pyridin-2-ylmethoxy)-3-(2-methyl-2-propylthio)-1-[4-(2-methoxy)
  % weight change: −0.40%
[5]; listed as Crystalline 3-[5-(pyrid-2-ylmethoxy)-3-(2-methyl-2-propylthio)-1-[4-(2-methoxypy)
  hygroscopicity in words: not hygroscopic
[6]
  Appearance of mixture after equilibration for 24 hours: Suspension
  pH of saturated solution: 7.88
  Concentration of filtrate (as mg/ml of free base): 0.0019 mg/mL

## COc1ccc(-c2ccc(Cn3c(CC(C)(C)C(=O)O)c(SC(C)(C)C)c4cc(OCc5ccccn5)ccc43)cc2)cn1 [Form B]
[7]; pH about 1.1
  Concentration (mg/mL): about 0.690 mg/mL
[7]; pH about 4.9
  Concentration (mg/mL): about 0.0594 mg/mL
[7]; pH about 8.8
  Concentration (mg/mL): about 0.00573 mg/mL
[7]; pH about 9.2
  Concentration (mg/mL): about 9.80 mg/mL
[7]; pH about 9.8
  Concentration (mg/mL): about 53.1 mg/mL
[7]; pH about 10.4
  Concentration: >70000 µg/mL
[8]
  change after 1 week storage (crystallinity / x-ray powder diffraction pattern, colour): loses its crystallinity and the colour changes to yellow
[8]; conditions not stated
  physical and chemical stability: physically and chemically stable
[5]
  stability to changes in humidity (XRPD after GVS experiment): stable to changes in humidity
  hygroscopicity in words: very hygroscopic
  total weight change: 26%
[5]; [16]
  % weight change: −1.54%
[5]; [17]
  % weight change: 3.73%
[5]; [18]
  % weight change: 20.92%
[5]; [19]
  % weight change: −25.51%
[5]; [20]
  % weight change: 20.72%
[5]; [21]
  % weight change: 3.66%
[5]; [22]
  % weight change: −24.45%
[6]
  Appearance of mixture after equilibration for 24 hours: Fine Suspension
  pH of saturated solution: 9.95
  Concentration of filtrate (as mg/ml of free base): 5.4 mg/mL

## COc1ccc(-c2ccc(Cn3c(CC(C)(C)C(=O)O)c(SC(C)(C)C)c4cc(OCc5ccccn5)ccc43)cc2)cn1 [Form C]
[8]
  change after 1 week storage (crystallinity / x-ray powder diffraction pattern, colour): No change
[8]; 5° C., 25° C./60% RH and 40° C./75% RH for at least two months
  physical and chemical stability: physically and chemically stable
[5]
  stability to changes in humidity (XRPD after GVS experiment): stable to changes in humidity
  hygroscopicity in words: hygroscopic
  total weight change: 16%
[5]; [16]
  % weight change: −0.37%
[5]; [17]
  % weight change: 1.98%
[5]; [18]
  % weight change: 13.83%
[5]; [19]
  % weight change: −16.23%
[5]; [20]
  % weight change: 14.52%
[5]; [21]
  % weight change: 2.01%
[5]; [22]
  % weight change: −16.51%
[6]
  aqueous solubility compared between forms: more soluble than Form B and the crystalline free acid
  Appearance of mixture after equilibration for 24 hours: Fine Suspension
  pH of saturated solution: 10.05
  Concentration of filtrate (as mg/ml of free base): >10 mg/mL

## CC(C)(C)Sc1c(CC(C)(C)C(=O)O)n(Cc2ccc(Cl)cc2)c2ccc(OCc3ccc4ccccc4n3)cc12 [MK-0591, 3-[1-(4-chlorobenzyl)-3-(tert-butylthio)-5-(quinolin-2-ylmethoxy)indol-2-yl]-2,2-dimethyl propanoic acid]
[4]
  efficacy in words: shown efficacy
[9]
  efficacy in words: shown efficacy

## CC(C)c1ccc2c(c1)c(SC(C)(C)C)c(CC(C)(C)C(=O)O)n2Cc1ccc(Cl)cc1 [MK-866, 3-[1-(4-chlorobenzyl)-3-(tert-butylthio)-5-(isopropyl)-indol-2-yl]-2,2-dimethyl propanoic acid]
[4]
  efficacy in words: shown efficacy

## CC(c1cc2ccccc2s1)N(O)C(N)=O (stereo not drawn) [Zileuton]
[4]
  efficacy in words: not effective
[9]
  efficacy in words: exhibited clinical efficacy
[10]
  liver weight alteration: 36.0%

## COc1ccc(-c2ccc(Cn3c(CC(C)(C)C(=O)O)c(SC(C)(C)C)c4cc(OCc5ccccn5)ccc43)cc2)cn1 [sodium 3-[5-(pyrid-2-ylmethoxy)-3-(2-methyl-2-propylthio)-1-] [sodium 3-[5-(pyridin-2-ylmethoxy)-3-(2-methyl-2-propylthio)-1-[4-(2-methoxypyridin-5-yl)benzyl]-indol-2-yl]-2,2-dimethyl-propionate]
[1]; [23]
  inhibition of blood LTB4 levels at 8 hours (Ionophore Challenge): ≥ 80%
  inhibition of blood LTB4 levels at 24 hours (Ionophore Challenge): ≥ 30%
[2]; [23]
  inhibition of urinary LTE4 levels at 24 hours: ≥ 80%
[11]; human, pH 7.4
  IC50: > 50 µM
[11]
  inhibition in words: No apparent inhibition
[12]
  inhibition in words: No apparent inhibition
[13]
  inhibition in words: weakly inhibited
[14]
  inhibition in words: No apparent inhibition
[15]
  inhibition in words: No apparent inhibition
[3]
  CYP2C9 induction in words: No apparent induction
